According to patent US20260240822A1, “Methods and Compositions for Treating Atopic Dermatitis” (Regranion, LLC, priority 2023, published 2026):

How the values were obtained:
[1] = test system: MC903-induced AD-like skin inflammation; assay: MC903-induced atopic dermatitis mouse model; format: in vivo, Female Balb/cAnNRj mice; conditions: for body weight loss: topical treatment, MC903 model
Method: Punch biopsies were stored in 750 μL RNAlater-ICE (ThermoFisher) at −80° C. for 20 minutes and overnight at −20° C. Then, the biopsies were added to 175 μL SV RNA lysis buffer with β-mercaptoethanol (SV Total RNA Isolation System; Promega) followed by homogenization using TissueLyser (Qiagen, Hilden, Germany). The remaining steps including RNA purification and DNase treatment were conducted following the manufacturer's instructions.
cDNA was generated using total RNA, TaqMan Reverse Transcription Reagents with random hexamers (ThermoFisher) and Peltier Thermal Cycler-200 (MJ Research Inc, Waltham, MA, USA) following the manufacturer's instructions. Real-time PCR was carried out with 20 ng cDNA per 20 μL reaction in StepOnePlus Real-Time PCR system (ThemoFisher) using TaqMan Universal PCR Master Mix, primers and probes (ThermoFisher) for TNF (Hs00174128_m1), ILIB (Hs01555410_m1), IL6 (Hs00174131_m1), TSLP (Hs00263639_m1), CCL17 (Hs00171074_m1), CCL22 (Hs01574247_m1), Il1b (Mm00434228_m1), Il4 (Mm00445259_m1), Il6 (Mm00446190_m1), Il13 (Mm00434204_m1) RPLPO (Hs99999902_m1) and Gapdh (Mm99999915_m1). Three technical replicates for each sample underwent real-time PCR; 2 minutes at 50° C. and 10 minutes at 95° C. followed by 40 cycles of 15 seconds at 95° C. and 1 minute at 60° C. The standard curve method with StepOne Software v2.1 and reference genes (RPLPO and Gapdh) were used to obtain normalised relative expression levels of target genes.^17
Female Balb/cAnNRj (8 weeks old) mice were purchased from Janvier Labs (Le Genest-Saint-Isle, France), and housed in animal facilities at 19-25° C. with 12-hour light/dark cycles and free access to laboratory rodent diet and water. The mice had at least 1 week acclimation period before the experiments started.
Mice were randomly divided to receive: vehicle and drug-vehicle (negative control); MC903 (MedChemExpress, Monmouth Junction, NJ, USA) and drug-vehicle (disease control); MC903 and topical or oral Compound I (Compound I treatment groups); or MC903 and topical dexamethasone (positive control; purchased from Sigma-Aldrich). Four to eight mice were allocated to each group, totalling 76 mice for all experiments.
To induce AD-like skin inflammation, 1 or 2.5 nmol of MC903 in 25 μL absolute ethanol was topically applied once daily to the ventral and dorsal surface of the right ear for six consecutive days. After MC903 challenge, the mice were treated with topical Compound I (1 mg in 25 μL ethanol), oral Compound I (100 mg/kg), topical dexamethasone (20 nmol in 25 μl ethanol), or drug-vehicle (topical ethanol or oral 5% kleptose [HPB, Roquette Pharma, Lestrem, France]). The topical treatments were applied 2 hours post-MC903 challenge, whereas the oral treatments were administered by oral gavage immediately post-MC903 challenge. At the end of the experiment on day 9, clinical photos of the ears were taken and the mice were euthanised by cervical dislocation. Two punch biopsies (4 mm) from the ear were collected for RNA isolation and histological assessment. Ear thickness, the primary clinical endpoint for inflammation, was measured daily with a digital calliper (Mitutoyo Corporation, Kawasaki, Japan), and body weight was measured throughout the study to monitor the welfare of mice. During the experimental procedures, the mice were anesthetized with 2% isoflurane.
Four-millimetres punch biopsies from the ear were fixed in 4% formaldehyde overnight at 4° C., paraffin-embedded, and serially sliced into 4 μm sections subjected to staining procedures. For haematoxylin & eosin (HE) staining, a standard protocol was followed. To detect mast cells, sections were stained with 0.1% toluidine blue solution (Sigma-Aldrich) at pH 2.3 and room temperature for 3 minutes. […]

p65 (subunit of NF-κB) = assay: Western blot of p65 phosphorylation in stimulated NHEKs; format: cell-based, human; conditions: 5 μM, 1 hour
Method: (§1) Primary normal human epidermal keratinocytes (NHEKs) were isolated from nine healthy donors as described previously.^13 The keratinocytes were plated in 6-well plates and cultured in keratinocyte SFM (Gibco, ThermoFisher Scientific, Waltham, MA, USA) supplemented with growth factors and 5 μg/ml Gentamicin (Gibco) at 37° C. in a humidified incubator containing 5% CO2 until 60-70% confluency. Subsequently, the keratinocytes were starved for 24 hours in keratinocyte SFM medium without growth factors before the initiation of experiments.
(§2) PBS-washed keratinocytes were added cell lysis buffer with complete Protease Inhibitor Cocktail and phenylmethylsulphonyl fluoride (Sigma-Aldrich). […] The protein concentration was determined by Bradford Protein Assay.
(§3) A total of 20 μg protein extract for each sample was loaded on 10% mini-PROTEAN TGX PreCast Gel (Bio-Rad, Hercules, CA, USA) and separated by gel electrophoresis using Mini Trans-Blot Cell (Bio-Rad). […] Protein bands were detected with an enhanced chemiluminescence (ECL) reaction using Clarity Western ECL Substrate (Bio-Rad) and digitally imaged with C-DiGit Blot Scanner (LI-COR, Lincoln, NE, USA). To normalize the protein expression to β-actin levels, the membranes were stripped and reprobed with an anti-β-actin antibody (A1978; Sigma-Aldrich), which was detected by HRP-conjugated anti-mouse IgG (p0447; Dako, Glostrup, Denmark). […]

AD-like inflammation = assay: MC903 model at independent testing facility (alternative MC903 regimen); format: in vivo, BALB/c mice; conditions: oral 20, 50 and 100 mg/kg
Method: To evaluate the feasibility of orally administered Compound I, mice were challenged with 2.5 nmol MC903 for six days and administered 100 mg/kg Compound I by oral gavage once daily throughout the experiment.

STAT6 = assay: Western blot of STAT6 phosphorylation in stimulated NHEKs; format: cell-based, human; conditions: 5 μM, TNF/IL-4 stimulation, 1 hour
Method: as §1, §2, §3

stimulated NHEKs = conditions: previous concentration studies; used concentration 5 μM; cited from earlier work
STAT3 = assay: Western blot of STAT3 phosphorylation in stimulated NHEKs; format: cell-based, human; conditions: 5 μM, TNF/IFNγ or TNF/IL-4 stimulation, 1 hour
Method: as §1, §2, §3

[2] = Skin concentration in punch biopsies of hidradenitis suppurativa subjects, week 16; format: in vivo, human; conditions: oral dosing at 250 mg; skin (16 weeks daily) vs plasma (single dose)
Excerpt: A 16-week treatment, randomized, double-blind, proof-of-concept study was designed to assess the safety and efficacy of Compound I compared to placebo in treating hidradenitis suppurativa. Eligible subjects completed an up-to 4-week screening phase and sequentially be randomized 2:1 to one of two cohorts, treatment cohort (n=10) or placebo-control cohort (n=5), in a 16-week treatment phase followed by a 4-week observational follow-up phase. In the 16-week treatment phase, subjects randomized to the treatment group receive 250 mg Compound I free base in the form of a tablet administered orally once daily. The 250 mg dose was selected based on the results of an earlier oncology trial conducted with doses in excess of 1000 mg/day as a safe minimal dose from which to conduct dose escalation if required. Subjects randomized to the placebo-control group receive placebo treatment once daily (microcrystalline cellulose, mannitol, crospovidone, Opadry II red, magnesium stearate, colloidal silicon dioxide).
The accumulation of Compound I in the skin of human hidradenitis suppurativa of subjects in the treatment cohort was determined. […] FIG. 7 is a graph showing the concentrations of Compound I found in the biopsied tissues in subjects grouped according to their clinical response to Compound I therapy. […]

[3] = psoriasis and hidradenitis suppurativa patients; cited from earlier work
[4] = Plasma pharmacokinetics after single oral dose in healthy male subjects; format: in vivo, human; conditions: single oral dose 250 mg, read-out: Cmax (median)
Method: The skin accumulation found in this study was compared to plasma levels of Compound I determined in a previous study in healthy human volunteers. Six healthy male subjects were given a single oral dose of 250 mg Compound I, and plasma samples were collected pre-dose and at 0.25, 0.5, 0.75, 1, 1.5, 2, 2.5, 3, 4, 6, 8, 10, 12, 18, 24, 30, 36, 48, 72 and 96 hours after dosing.

STAT1 = assay: Western blot of STAT1 phosphorylation in stimulated NHEKs; format: cell-based, human; conditions: 5 μM, 1 hour
Method: as §1, §2, §3

[5] = test system: primary normal human epidermal keratinocytes (NHEKs) stimulated with TNF/IFNγ or TNF/IL-4; assay: RT-qPCR of AD-related gene expression in cytokine-stimulated primary human keratinocytes; format: cell-based; conditions: 5 μM, 24 hours
Method: as §1
Keratinocytes were washed with phosphate-buffered saline (PBS; Gibco) followed by RNA extraction using SV 96 Total RNA Isolation System (Promega, Madison, WI, USA) per the manufacturers' instructions. NanoDrop 2000 Spectrophotometer (ThermoFisher) was used to determine the RNA concentration and purity.
cDNA was generated using total RNA, TaqMan Reverse Transcription Reagents with random hexamers (ThermoFisher) and Peltier Thermal Cycler-200 (MJ Research Inc, Waltham, MA, USA) following the manufacturer's instructions. […]
The statistical significance threshold was set at P<0.05. Differences between treatment groups in clinical endpoints, mRNA (qPCR) and protein levels (western blot) were analysed by unpaired t-tests for mice and paired t-tests for keratinocytes. […]

[6] = topical, 1 nmol MC903, ear biopsies

Q: Which body weight loss [1] does the source give for `C[C@@H]1C[C@H]2[C@@H]3CCC4=CC(=O)C=C[C@]4(C)[C@@]3(F)[C@@H](O)C[C@]2(C)[C@@]1(O)C(=O)CO` [dexamethasone, reference compound] here?
A: lost significantly more weight than Compound I-treated mice

Q: For `CN(C)c1cc2c(cc1Sc1nc3c(N)nccc3n1CCNCC(C)(C)C)OCO2` [Compound I], which “phosphorylation of p65” value (p65 (subunit of NF-κB)) is on record?
A: no significant effects

Q: And the “alleviation of AD-like inflammation” value (AD-like inflammation)?
A: dose-dependent improvement

Q: And the “reduction of phosphorylation of STAT6” value (STAT6)?
A: ~ 20%

Q: And the “toxicity in stimulated NHEKs” value (stimulated NHEKs)?
A: 3-6%

Q: And the erythema ([1]; oral 100 mg/kg, 2.5 nmol MC903)?
A: visibly reduced erythema

Q: And the “reduction of ear thickening compared with drug-vehicle” value ([1]; oral gavage 100 mg/kg once daily, 2.5 nmol MC903)?
A: 28%

Q: And the “reduction in ear thickness compared with drug-vehicle” value ([1]; topical 1 mg once daily, 1 nmol MC903, day 9)?
A: 55%

Q: And the “suppression of MC903-induced ear thickening” value ([1]; topical 1 mg once daily, 2.5 nmol MC903, day 9)?
A: 50%

Q: What about the body weight loss [1] of the same compound?
A: significantly less weight loss compared with dexamethasone

Q: And the “cytokine expression of Il1b, Il4, Il6 and Il13 in ear tissue compared with drug-vehicle” value ([1]; topical, 1 nmol MC903, RNA sequencing and qPCR)?
A: significantly reduced

Q: What about the erythema ([1]; topical, 1 nmol MC903, day 9) of the same compound?
A: visibly reduced erythema

Q: What about the “epidermal and dermal thickness (histology)” value [1, 6] of the same compound?
A: significantly decreased

Q: And the “immune cell infiltration into the skin (mast cells, Ly6g+ neutrophils, CD4+ T-cells)” value [1, 6]?
A: significantly suppressed

Q: What about the “total number of cells within histological sections” value [1, 6] of the same compound?
A: significantly reduced

Q: What about the “reduction of ear thickness” value ([1]; topically delivered, summary of 1 and 2.5 nmol MC903 experiments) of the same compound?
A: 50-54%

Q: And the “phosphorylation of STAT3” value (STAT3)?
A: significantly suppressed

Q: And the “accumulation in the skin relative to plasma” value [2]?
A: approximately 100,000 fold

Q: And the “tolerability of oral treatment” value [3]?
A: well-tolerated

Q: What about the Cmax [4] of the same compound?
A: 46 nM

Q: What about the “phosphorylation of STAT1” value (STAT1) of the same compound?
A: no significant effects

Q: And the “expression of AD-associated cytokines (TNF, IL1B, IL6) and chemokines (CCL17, CCL22)” value ([5]; TNF/IFNγ or TNF/IL-4 stimulation, vs stimulated/vehicle- and stimulated/dexamethasone-treated NHEKs)?
A: robustly inhibited the expression

Q: And the “expression of TSLP” value ([5]; stimulated NHEKs)?
A: suppressed
